These results are taken from ChEMBL document CHEMBL1127391, “Generally applicable, convenient solid-phase synthesis and receptor affinities of octreotide analogs” (J Med Chem, 1994).

The experiment addresses Somatostatin receptor. Kind of experiment: Dissociation constant binding to somatostatin receptor of At-20 mouse pituitary carcinoma cell membranes. The following applies: pituitary gland cell.

By Kd is commonly meant the concentration at which binding is half-saturated.

Take `C[C@H](O)[C@H](CO)NC(=O)[C@H](CS)NC(=O)[C@@H](NC(=O)[C@H](CCCCN)NC(=O)[C@@H](Cc1c[nH]c2ccccc12)NC(=O)[C@H](Cc1ccccc1)NC(=O)[C@H](CS)NC(=O)[C@@H](Cc1ccccc1)NC(=O)CN(CCN(CCN(CC(=O)O)CC(=O)O)CC(=O)O)CC(=O)O)[C@@H](C)O`: the Kd was determined as 5.57 nM.
